Data published in paper PMC9646789, “Discovery of potential natural dihydroorotate dehydrogenase inhibitors and their synergism with brequinar via integrated molecular docking, dynamic simulations and in vitro approach” (Scientific Reports, 2022).

Target: T1, human dihydroorotate dehydrogenase (hDHODH) (Homo sapiens, UniProt Q02127)
T1 construct: gene DHODH
Assay: biochemical

T1 sequence (Q02127 whole entry): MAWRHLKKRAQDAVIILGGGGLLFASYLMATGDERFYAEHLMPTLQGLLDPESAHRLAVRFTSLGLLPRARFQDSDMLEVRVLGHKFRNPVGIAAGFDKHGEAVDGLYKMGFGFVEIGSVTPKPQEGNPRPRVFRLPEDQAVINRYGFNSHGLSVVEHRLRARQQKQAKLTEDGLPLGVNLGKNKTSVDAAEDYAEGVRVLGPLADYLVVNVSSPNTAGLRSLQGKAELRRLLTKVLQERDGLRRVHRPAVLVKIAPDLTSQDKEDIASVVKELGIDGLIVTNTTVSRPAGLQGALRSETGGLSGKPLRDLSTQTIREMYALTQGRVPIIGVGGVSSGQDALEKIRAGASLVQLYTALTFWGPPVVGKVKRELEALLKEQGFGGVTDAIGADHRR

Row | Compound | IC50 [µM]
1 | COc1cc(C2Oc3cc([C@H]4Oc5cc(O)cc(O)c5C(=O)[C@@H]4O)ccc3OC2CO)ccc1O (some centres unmarked) [Silibinin] | 0.121
2 | COc1cc([C@H]2Oc3c(O)cc([C@H]4Oc5cc(O)cc(O)c5C(=O)[C@@H]4O)cc3[C@@H]2CO)ccc1O [Silychristin B] | 0.166
